According to publication PMC10488051, “Screening, Synthesis and Biochemical Characterization of SARS-CoV-2 Protease Inhibitors” (International Journal of Molecular Sciences, 2023):
Where two headings read alike, the source gives them in different places.

How the values were obtained:
[1] = biological target: SARS-CoV-2 PL^pro (Severe acute respiratory syndrome coronavirus 2, UniProt P0DTD1); assay: PL^pro enzymatic inhibition assay (FRET-based, Z-RLRGG-AMC substrate); format: biochemical; details: for Kd: enzymatic inhibition assay, 25 °C, pH 7.5
[2] = biological target: SARS-CoV-2 M^pro (Severe acute respiratory syndrome coronavirus 2, UniProt P0DTD1); assay: biochemical; format: biochemical
[3] = biological target: PL^pro (Severe acute respiratory syndrome coronavirus 2, UniProt P0DTD1); format: binding; details: no reducing agents; 1 h incubation at room temperature
[4] = Table 1 thiazole series, uncertainty approx. 1.8-fold of Kd
[5] = Table 2 disulfide compounds, PL^pro dialyzed to avoid DTT
[6] = Table 2 disulfide compounds, enzymatic inhibition assay, 25 °C, pH 7.5

Structure (SMILES) | Kd [1, 4] | Kd [2] | further results
O=C(O)CCNc1cccc2ccccc12 [Compound 1, 3-(naphtylamino]propanoic acid] | 68 µM | > 200 µM | –
NC(=S)N(CCC(=O)O)c1cccc2ccccc12 [Compound 2] | 29 µM | > 200 µM | Fold increase in PL^pro binding affinity compared to compound 1 ([1]; vs starting compound 1): 2 fold
O=C(O)CCN(c1nccs1)c1cccc2ccccc12 [Compound 3, 3-[naphthalene-1-yl(1,3-thiazol-2-yl)amino]propanoic acid] | 14 µM | 25 µM | –
Cc1csc(N(CCC(=O)O)c2cccc3ccccc23)n1 [Compound 4] | 110 µM | > 200 µM | Fold weakening of PL^pro interaction compared to compound 3 ([1]; vs parent compound 3): 8 fold
O=C(O)CCN(C1=NC(=O)CS1)c1cccc2ccccc12 [Compound 5] | > 200 µM | > 200 µM | –
O=C(O)CCN(c1nc(-c2ccc(Br)cc2)cs1)c1cccc2ccccc12 [Compound 6a] | ≥ 50 µM | > 200 µM | –
O=C(O)CCN(c1nc(-c2ccc(Cl)cc2)cs1)c1cccc2ccccc12 [Compound 6b] | ≥ 50 µM | > 200 µM | –
O=C(O)CCN(c1nc(-c2ccc(F)cc2)cs1)c1cccc2ccccc12 [Compound 6c] | ≥ 50 µM | > 200 µM | –
O=C(O)CCN(c1nc(-c2ccc([N+](=O)[O-])cc2)cs1)c1cccc2ccccc12 [Compound 6d] | 25 µM | 26 µM | –
N#Cc1ccc(-c2csc(N(CCC(=O)O)c3cccc4ccccc34)n2)cc1 [Compound 6e] | 20 µM | > 200 µM | –
O=C(O)CCN(c1nc(-c2ccc(Cl)c(Cl)c2)cs1)c1cccc2ccccc12 [Compound 7] | ≥ 50 µM | > 200 µM | –
O=C(O)CCN(c1nc(-c2ccc3ccccc3c2)cs1)c1cccc2ccccc12 [Compound 8] | 35 µM | > 200 µM | –
O=C(O)CCN(c1nc(CCl)cs1)c1cccc2ccccc12 [Compound 9] | ≥ 50 µM | > 200 µM | –
O=C(O)CCN(c1nc(CO)cs1)c1cccc2ccccc12 [Compound 10] | 35 µM | > 200 µM | –
CCOC(=O)Cc1csc(N(CCC(=O)O)c2cccc3ccccc23)n1 [Compound 11] | > 200 µM | > 200 µM | –
O=C(O)CCN(c1nc(CNc2ccccc2)cs1)c1cccc2ccccc12 [Compound 12] | 29 µM | > 200 µM | –
O=C(O)CCN(C1=NC(=O)C(=Cc2ccc(Br)cc2)S1)c1cccc2ccccc12 [Compound 13a] | 24 µM | 6.5 µM | Fold more potent for M^pro inhibition than PL^pro ([2]; ratio of Kd values): 3.7 fold
O=C(O)CCN(C1=NC(=O)C(=Cc2ccc(Cl)cc2)S1)c1cccc2ccccc12 [Compound 13b] | ≥ 50 µM | > 200 µM | –
O=C(O)CCN(C1=NC(=O)/C(=C/c2ccc(F)cc2)S1)c1cccc2ccccc12 [Compound 13c] | 8.6 µM | 8.6 µM | –
O=C(O)CCN(C1=NC(=O)C(=Cc2ccc(O)cc2O)S1)c1cccc2ccccc12 [Compound 14] | 9.2 µM | > 200 µM | melting point: 205 to 206 °C
O=C(O)CCN(C1=NC(=O)C(=Cc2ccccc2O)S1)c1cccc2ccccc12 [Compound 15] | ≥ 50 µM | > 200 µM | melting point: 203 to 204 °C
O=C(O)CCN(C1=NC(=O)C(=Cc2cccs2)S1)c1cccc2ccccc12 [Compound 16] | ≥ 50 µM | > 200 µM | –
COC(=O)C=C1SC(N(CCC(=O)O)c2cccc3ccccc23)=NC1=O [Compound 17] | > 200 µM | > 200 µM | –
Cc1nc(N(CCC(=O)O)c2cccc3ccccc23)sc1C(=O)O [Compound 18] | ≥ 50 µM | > 200 µM | –
CC(=O)c1sc(N(CCC(=O)O)c2cccc3ccccc23)nc1C [Compound 19] | ≥ 50 µM | > 200 µM | –
CCOC(=O)c1sc(N(CCC(=O)O)c2cccc3ccccc23)nc1C [Compound 20] | 29 µM | > 200 µM | –

Structure (SMILES) | Kd [1, 4] | Kd [2] | further results
Cc1nc(N(CCC(=O)O)c2cccc3ccccc23)sc1C(=O)/C=C/c1ccccc1 [Compound 21a] | 110 µM | > 200 µM | –
Cc1nc(N(CCC(=O)O)c2cccc3ccccc23)sc1C(=O)/C=C/c1ccc(Cl)cc1 [Compound 21b] | 29 µM | 17 µM | Fold higher PL^pro affinity than compound 25b [1]: 2 fold; Fold improvement of PL^pro interaction in styryl ketone series [1]: 4
Cc1nc(N(CCC(=O)O)c2cccc3ccccc23)sc1C(=O)/C=C/c1ccc(F)cc1 [Compound 21c] | 52 µM | > 200 µM | Fold improvement of PL^pro interaction in styryl ketone series [1]: two times
Cc1nc(N(CCC(=O)O)c2cccc3ccccc23)sc1C(=O)/C=C/c1cccc2ccccc12 [Compound 22] | 5.2 µM | 10 µM | Fold stronger PL^pro affinity than compound 4 ([1]; vs compound 4): more than 20 fold
C/C(=N/Nc1ccccc1)c1sc(N(CCC(=O)O)c2cccc3ccccc23)nc1C [Compound 23] | 75 µM | > 200 µM | –
C/C(=N/N=C(/C)c1sc(N(CCC(=O)O)c2cccc3ccccc23)nc1C)c1sc(N(CCC(=O)O)c2cccc3ccccc23)nc1C [Compound 24] | 8 µM | > 200 µM | –
Cc1ccc(N(CCC(=O)O)c2nc(C)c(C(=O)C=Cc3ccccc3)s2)cc1 [Compound 25a] | 83 µM | > 200 µM | –
Cc1ccc(N(CCC(=O)O)c2nc(C)c(C(=O)C=Cc3ccc(Cl)cc3)s2)cc1 [Compound 25b] | 66 µM | > 200 µM | –
Cc1ccc(N(CCC(=O)O)c2nc(C)c(C(=O)C=Cc3ccc(F)cc3)s2)cc1 [Compound 25c] | 58 µM | > 200 µM | –
Cc1ccc(N(CCC(=O)O)c2nc(CNc3ccccc3)cs2)cc1 [Compound 26] | 16 µM | > 200 µM | Fold improvement of PL^pro affinity over compound 12 [1]: 2 fold
Cc1ccc(N(CCC(=O)O)c2nc(-c3ccc(Cl)cc3)c(/C=N\Nc3ccccc3)s2)cc1 [Compound 27a] | 35 µM | > 200 µM | –
Cc1ccc(N(CCC(=O)O)c2nc(-c3ccc(F)cc3)c(/C=N\Nc3ccccc3)s2)cc1 [Compound 27b] | ≥ 50 µM | > 200 µM | –
Cc1ccc(N(CCC(=O)O)c2nc(-c3ccc(C#N)cc3)c(/C=N\Nc3ccccc3)s2)cc1 [Compound 27c] | 15 µM | > 200 µM | –
Cc1ccc(N(CCC(=O)O)c2nc(-c3ccc(C#N)cc3)c(/C=N\NC(N)=S)s2)cc1 [Compound 28] | 8.8 µM | ≥ 50 µM | –
Cc1ccc(N(CCC(=O)O)c2nc(-c3ccc(C#N)cc3)c(C=O)s2)cc1 [Compound 29] | > 200 µM | > 200 µM | –
Nc1ccc(N(CCC(=O)O)c2nc(-c3ccc(Cl)cc3)cs2)cc1 [Compound 30a] | ≥ 50 µM | > 200 µM | –
Nc1ccc(N(CCC(=O)O)c2nc(-c3ccc(F)cc3)cs2)cc1 [Compound 30b] | ≥ 50 µM | > 200 µM | –
N#Cc1ccc(-c2csc(N(CCC(=O)O)c3ccc(N)cc3)n2)cc1 [Compound 30c] | 32 µM | > 200 µM | –
Nc1ccc(N(CCC(=O)O)c2nc(-c3ccc(C(F)(F)F)cc3)cs2)cc1 [Compound 30d] | ≥ 50 µM | > 200 µM | –
O=C(O)CCN(c1nc(C(=O)/C=C/c2ccccc2)c(C(=O)/C=C/c2ccccc2)s1)c1cccc2ccccc12 [Compound 31] | ≥ 50 µM | ≥ 50 µM | –
O=C(O)CCNc1ccccc1SSc1ccccc1NCCC(=O)O [Compound 33] | – | – | Kd [1, 5]: 2 µM; Kd [2, 6]: > 200 µM
NNC(=O)CCNc1ccccc1SSc1ccccc1NCCC(=O)NN [Compound 34] | – | – | Kd [1, 5]: 0.43 µM; Fold more potent for PL^pro than M^pro ([1]; ratio of Kd values): eight times; Kd [2, 6]: 3.5 µM; Covalent binding to PL^pro by mass spectrometry [3]: covalent binding of compound 34 to PLpro
O=C(CCNc1ccccc1SSc1ccccc1NCCC(=O)N/N=C/c1cccs1)N/N=C/c1cccs1 [Compound 35] | – | – | Kd [1, 5]: 2.5 µM; Kd [2, 6]: > 200 µM
Cc1ccc(C)n1NC(=O)CCNc1ccccc1SSc1ccccc1NCCC(=O)Nn1c(C)ccc1C [Compound 36] | – | – | Kd [1, 5]: 1.9 µM; Kd [2, 6]: > 200 µM
O=C1CCN(c2ccccc2SSc2ccccc2N2CCC(=O)NC2=O)C(=O)N1 [Compound 37] | – | – | Kd [1, 5]: 0.63 µM; Kd [2, 6]: > 200 µM
O=C(CNc1ccccc1SSc1ccccc1NCC(=O)c1ccccc1)c1ccccc1 [Compound 38] | – | – | Kd [1, 5]: 1.9 µM; Kd [2, 6]: > 200 µM
